Earlier results on 1 compound are cited in patent publication US20110290119A1, “ANTIMICROBIAL ELECTRET WEB” (3M Innovative Properties Company, priority 2009, published 2011).

In this data set the test system is Ps. aeruginosa (gram negative). To be noted: known.

On to `O=C1OC2(c3cc(I)c(O)c(I)c3Oc3c2cc(I)c(O)c3I)c2c(Cl)c(Cl)c(Cl)c(Cl)c21` [rose bengal, 4,5,6,7-Tetrachloro-3′,6′-dihydroxy-2′,4′,5′,7′-tetraiodo-3H-spiro[isobenzofuran-1,9′-xanthen]-3-one], for which the microbial load reduction result is given as “not particularly effective”.
